Holding throughout (assay type): biochemical
For one assay, the target named is JAK2 (Homo sapiens (Human), UniProt O60674). The assay is described as follows: JAK kinase assay (KINASE-GLO luminescent), JAK2 enzyme. The settings on record: JAK2 enzyme 10 nM, Abl peptide substrate. How it is done:
All compounds were initially prepared as 10 mM stocks in anhydrous dimethylsulfoxide (DMSO). A 20 μL aliquot of the 10 mM solutions was transferred to individual wells in column 1 of a 96-well polypropylene microtiter plate (Corning #3363) and diluted with DMSO to give a final compound concentration of 4 mM. Test compounds were then serially diluted 1:5 in DMSO for an 11-point concentration response and further diluted in the assay buffer bringing all compound concentrations to a final range of 100 μM to […] in 2.5% DMSO. The assay was performed in white 96-well, flat-bottom, half-area, non-binding assay plate (Corning #3642) in assay buffer consisting of 20 mM HEPES (pH 7.5), 10 mM MgCl2*6H2O, 100 μM sodium orthovanadate, 0.05% CHAPS and 0.1% bovine serum albumin. A 10 μL aliquot of compound from each well of the intermediate dilution plate and 20 μL of a 2× substrate/enzyme solution containing acceptor substrate (800 nM RSK2 peptide […] (SEQ ID NO: 1)), ROCK2 enzyme (10 nM), or ROCK1 enzyme, and 1,4-Dithiothreitol (DTT, 2 uM) were added to all wells. The reaction was initiated by the addition of 10 μL of 4× stock solution ATP (2 μM). Reactions were thoroughly mixed manually, covered, and allowed to incubate at room temperature for 75 min. Protein kinase activity was quantitated using Promega's KINASE-GLO™ luminescent Kinase Assay Kit according to the manufacturer's directions. ATP concentrations remaining in Test wells following the termination of the enzymatic reaction were compared against control wells containing equivalent amounts of DMSO containing no inhibitor (CTRL). […] Percent of Control (POC) values were determined for each concentration of compound tested according to the equation: […]
IC50 values were calculated using the following 4-parameter logistic curve-fitting algorithm:
Compounds were prepared in the exact same manner as described in the ROCK Kinase Assay with the exception to the substrate and enzyme. […]

For a further assay, the target named is TYK2 (Homo sapiens (Human), UniProt P29597). The assay is described as follows: JAK kinase assay (KINASE-GLO luminescent), TYK2 enzyme. The conditions noted are these: TYK2 enzyme 10 nM, Abl peptide substrate. The procedure, abridged:
(§1)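 Kinase-Glo luminescence measures ATP remaining after 75 min at room temperature; ATP 2 μM in 4× stock. 11-point 1:5 dilutions, 2.5% DMSO final. Percent of DMSO control per concentration, IC50 by 4-parameter logistic fit.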
Background: Kinase-Glo measures the ATP left after a reaction by luminescence.

The next assay addresses JAK1 (Homo sapiens (Human), UniProt P23458). Description: JAK kinase assay (KINASE-GLO luminescent), JAK1 enzyme. The settings on record: JAK1 enzyme 10 nM, Abl peptide substrate. The procedure, abridged:
as §1

SMILES strings stand for the structures.

Data on eight compounds can be found in US20240425496A1, “AZETIDINYL PYRIMIDINES AND USES THEREOF” (Aerie Pharmaceuticals, Inc., priority 2021, published 2024).

Sequence of JAK2 (O60674 whole entry, species assumed): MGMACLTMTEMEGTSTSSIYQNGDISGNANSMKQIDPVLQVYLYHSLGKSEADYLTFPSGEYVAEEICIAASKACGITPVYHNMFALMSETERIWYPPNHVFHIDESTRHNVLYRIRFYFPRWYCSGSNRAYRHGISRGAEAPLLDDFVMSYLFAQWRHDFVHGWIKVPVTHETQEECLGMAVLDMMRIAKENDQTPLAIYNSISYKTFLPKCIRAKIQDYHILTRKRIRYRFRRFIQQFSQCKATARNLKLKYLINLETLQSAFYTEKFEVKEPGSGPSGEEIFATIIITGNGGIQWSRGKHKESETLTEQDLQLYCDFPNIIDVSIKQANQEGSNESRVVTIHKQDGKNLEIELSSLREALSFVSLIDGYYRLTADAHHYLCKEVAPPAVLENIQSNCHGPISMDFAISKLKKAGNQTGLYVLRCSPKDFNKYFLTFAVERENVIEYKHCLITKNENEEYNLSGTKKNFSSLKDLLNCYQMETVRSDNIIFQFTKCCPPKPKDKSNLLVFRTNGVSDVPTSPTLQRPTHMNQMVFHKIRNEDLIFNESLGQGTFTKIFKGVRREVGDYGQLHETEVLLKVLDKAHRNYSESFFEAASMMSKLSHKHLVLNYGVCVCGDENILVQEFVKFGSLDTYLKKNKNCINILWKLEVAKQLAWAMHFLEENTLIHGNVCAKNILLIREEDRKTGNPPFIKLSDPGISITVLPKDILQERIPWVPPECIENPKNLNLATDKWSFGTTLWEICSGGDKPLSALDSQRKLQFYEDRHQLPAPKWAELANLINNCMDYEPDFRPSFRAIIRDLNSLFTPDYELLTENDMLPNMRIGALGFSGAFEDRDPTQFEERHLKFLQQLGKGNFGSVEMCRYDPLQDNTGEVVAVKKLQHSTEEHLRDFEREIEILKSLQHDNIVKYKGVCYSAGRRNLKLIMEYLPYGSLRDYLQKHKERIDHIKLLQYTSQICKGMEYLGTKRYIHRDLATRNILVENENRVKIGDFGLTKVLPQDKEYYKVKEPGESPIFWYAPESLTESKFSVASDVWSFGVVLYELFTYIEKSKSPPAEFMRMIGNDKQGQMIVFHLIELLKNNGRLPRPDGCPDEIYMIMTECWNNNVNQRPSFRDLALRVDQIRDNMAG
Sequence of JAK1 (P23458 whole entry, species assumed): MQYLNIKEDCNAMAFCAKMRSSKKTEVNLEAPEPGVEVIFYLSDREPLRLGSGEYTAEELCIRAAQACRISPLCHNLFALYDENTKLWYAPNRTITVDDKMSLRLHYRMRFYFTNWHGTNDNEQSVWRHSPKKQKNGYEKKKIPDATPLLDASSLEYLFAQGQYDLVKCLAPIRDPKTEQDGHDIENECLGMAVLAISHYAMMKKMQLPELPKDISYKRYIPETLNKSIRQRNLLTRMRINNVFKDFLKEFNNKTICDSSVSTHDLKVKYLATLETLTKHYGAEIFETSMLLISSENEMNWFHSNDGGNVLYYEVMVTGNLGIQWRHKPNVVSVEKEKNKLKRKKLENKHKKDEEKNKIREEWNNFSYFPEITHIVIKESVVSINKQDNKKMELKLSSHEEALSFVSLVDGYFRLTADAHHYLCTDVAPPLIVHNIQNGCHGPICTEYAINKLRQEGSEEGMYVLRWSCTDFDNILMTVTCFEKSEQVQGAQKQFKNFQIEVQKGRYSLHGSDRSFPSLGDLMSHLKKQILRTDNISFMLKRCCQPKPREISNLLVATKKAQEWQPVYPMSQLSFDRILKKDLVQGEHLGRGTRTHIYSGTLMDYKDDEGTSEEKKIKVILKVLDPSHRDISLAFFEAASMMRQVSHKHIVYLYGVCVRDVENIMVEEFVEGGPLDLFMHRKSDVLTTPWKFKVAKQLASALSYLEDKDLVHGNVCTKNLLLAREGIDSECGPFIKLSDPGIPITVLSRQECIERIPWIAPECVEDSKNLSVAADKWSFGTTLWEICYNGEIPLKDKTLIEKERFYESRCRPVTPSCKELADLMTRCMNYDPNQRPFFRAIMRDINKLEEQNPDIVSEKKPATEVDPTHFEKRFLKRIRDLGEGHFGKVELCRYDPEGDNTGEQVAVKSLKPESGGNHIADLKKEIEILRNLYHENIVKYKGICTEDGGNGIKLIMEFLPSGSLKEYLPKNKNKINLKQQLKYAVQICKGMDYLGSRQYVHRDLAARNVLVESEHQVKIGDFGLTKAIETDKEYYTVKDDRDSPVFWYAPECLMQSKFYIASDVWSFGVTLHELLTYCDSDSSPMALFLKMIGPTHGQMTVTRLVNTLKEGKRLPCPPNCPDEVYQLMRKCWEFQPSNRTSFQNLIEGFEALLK
Sequence of TYK2 (P29597 whole entry, species assumed): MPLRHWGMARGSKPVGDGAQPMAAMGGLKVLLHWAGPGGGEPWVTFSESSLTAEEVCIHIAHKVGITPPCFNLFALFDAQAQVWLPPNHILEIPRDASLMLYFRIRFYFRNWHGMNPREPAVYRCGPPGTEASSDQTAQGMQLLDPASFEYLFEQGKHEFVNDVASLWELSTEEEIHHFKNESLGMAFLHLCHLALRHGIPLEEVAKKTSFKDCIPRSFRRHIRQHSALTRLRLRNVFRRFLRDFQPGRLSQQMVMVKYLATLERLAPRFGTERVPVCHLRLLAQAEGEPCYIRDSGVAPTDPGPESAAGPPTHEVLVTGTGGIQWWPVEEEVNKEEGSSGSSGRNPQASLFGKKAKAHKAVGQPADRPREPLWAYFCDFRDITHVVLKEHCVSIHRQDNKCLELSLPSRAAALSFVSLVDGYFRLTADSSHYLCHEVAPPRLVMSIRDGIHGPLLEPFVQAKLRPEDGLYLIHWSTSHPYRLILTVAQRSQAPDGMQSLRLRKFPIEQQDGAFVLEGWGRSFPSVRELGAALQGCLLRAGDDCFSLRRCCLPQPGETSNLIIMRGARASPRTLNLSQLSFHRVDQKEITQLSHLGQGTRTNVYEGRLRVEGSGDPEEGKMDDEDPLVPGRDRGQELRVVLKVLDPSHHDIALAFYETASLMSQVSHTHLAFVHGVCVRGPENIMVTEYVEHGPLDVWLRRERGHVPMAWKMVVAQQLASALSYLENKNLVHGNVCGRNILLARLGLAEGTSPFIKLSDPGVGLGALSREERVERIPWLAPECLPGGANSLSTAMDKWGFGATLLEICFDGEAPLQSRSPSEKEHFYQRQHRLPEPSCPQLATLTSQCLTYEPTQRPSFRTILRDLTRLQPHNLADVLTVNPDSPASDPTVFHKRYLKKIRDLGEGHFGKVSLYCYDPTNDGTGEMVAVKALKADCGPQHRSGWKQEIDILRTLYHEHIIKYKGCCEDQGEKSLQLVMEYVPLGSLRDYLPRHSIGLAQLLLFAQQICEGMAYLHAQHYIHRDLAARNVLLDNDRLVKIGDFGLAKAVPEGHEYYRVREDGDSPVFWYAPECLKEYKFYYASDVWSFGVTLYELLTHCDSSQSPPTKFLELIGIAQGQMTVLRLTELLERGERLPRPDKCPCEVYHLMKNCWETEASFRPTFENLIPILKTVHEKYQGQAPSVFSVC

`Cc1cc(Nc2ncc(C)c(N3CC(C#N)C3)n2)sn1` [E7]: the IC50 – broadly, the point on the concentration scale where inhibition reaches its midpoint – on JAK2 is less than 50 nM. `Cc1cc(Nc2ncc(C)c(N3CC(CC#N)(N4CCN(C)[C@H](C)C4)C3)n2)sn1` [E52C]: the IC50 was less than 10 nM against TYK2 and less than 20 nM against JAK2. Consider `Cc1cnc(Nc2ccc3c(c2)CN(C)C3)nc1N1CC(CC#N)(N2CCC(CCF)CC2)C1` [E112], for which the IC50 against JAK1 and against JAK2 was less than 50 nM throughout. Regarding `Cc1cc(Nc2ncc(C)c(N3CC(CC#N)(NC(=O)C4CCCCC4(F)F)C3)n2)sn1` (stereo not drawn) [E354], the IC50 at TYK2 and against JAK1 was less than 50 nM in each case. On to `Cc1cc(Nc2ncc(C)c(N3CC(CC#N)(NC(=O)C4CCCC(F)(F)C4)C3)n2)sn1` (stereo not drawn) [E356], for which the IC50 against TYK2 and on JAK1 was less than 10 nM each time.

As to `Cc1cc(Nc2ncc(C)c(N3CC(CC#N)(NCC4CC4(F)F)C3)n2)sn1` (stereo not drawn) [E357], the IC50 is less than 10 nM on TYK2 and less than 20 nM at JAK1.

For `Cc1cc(Nc2ncc(C)c(N3CC(CC#N)(NCC4CCC(F)(F)C4)C3)n2)sn1` (stereo not drawn) [E358], the IC50 against TYK2 and at JAK1 was less than 10 nM throughout. On to `Cc1cc(Nc2ncc(C)c(N3CC(CC#N)(NCC4CCC(F)C4)C3)n2)sn1` (stereo not drawn) [E359], for which the IC50 against TYK2 and against JAK1 was less than 10 nM each time.
